US20260028354A1, “TETRAHYDRONAPHTHALENE DERIVATIVES AS ESTROGEN RECEPTOR DEGRADERS” (REGENT OF THE UNIVERSITY OF MICHIGAN, priority 2022, published 2026)
Structures can show the parent of a compound that is named as a salt. Where two headings read alike, the source gives them in different places.

Columns and labels:
CRBN/DDB1 = CRBN/DDB1 (Homo sapiens (Human), UniProt Q96SW2); format: binding; settings: His tagged CRBN+DDB1, Cy5-labeled Thalidomide probe, one hour; read-out: CRBN HTRF IC50
Protocol: The binding potency was determined using HTRF assay technology (Perkin Elmer). Compounds were serially diluted in DMSO and […] volume was transferred to white 384-well plate.

ER in MCF-7 cells = ER in MCF-7 cells (Homo sapiens (Human), UniProt P03372); assay: In-cell Western (ICW) ER degradation assay in MCF-7 cells; format: cell-based; settings: for DC50: MCF-7, ER degradation, read-out: MCF7 DC50
ER in MCF-7 cells, sequence (P03372 whole entry): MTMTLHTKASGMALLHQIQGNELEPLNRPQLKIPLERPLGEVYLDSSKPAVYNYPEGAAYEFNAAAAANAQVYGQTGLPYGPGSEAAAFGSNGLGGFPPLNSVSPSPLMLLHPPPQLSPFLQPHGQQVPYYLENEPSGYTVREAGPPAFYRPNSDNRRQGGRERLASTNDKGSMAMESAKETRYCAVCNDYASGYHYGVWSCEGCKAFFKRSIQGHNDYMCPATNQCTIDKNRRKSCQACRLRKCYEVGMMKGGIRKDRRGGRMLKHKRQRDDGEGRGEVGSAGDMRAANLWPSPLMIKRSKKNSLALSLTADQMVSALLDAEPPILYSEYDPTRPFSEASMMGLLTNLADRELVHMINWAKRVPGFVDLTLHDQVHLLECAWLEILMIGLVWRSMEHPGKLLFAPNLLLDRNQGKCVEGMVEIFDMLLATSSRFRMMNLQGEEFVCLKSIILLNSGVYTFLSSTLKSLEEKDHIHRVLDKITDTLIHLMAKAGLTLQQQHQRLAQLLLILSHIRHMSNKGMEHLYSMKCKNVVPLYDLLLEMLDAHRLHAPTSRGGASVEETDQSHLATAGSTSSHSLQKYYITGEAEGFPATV

ER in T47D cells = ER in T47D cells (Homo sapiens (Human), UniProt P03372); assay: In-cell Western (ICW) ER degradation assay in T47D cells; format: cell-based; settings: for DC50: ER degradation
ER in T47D cells, sequence (P03372 whole entry): as above

[1] = MCF7, MCF-7, maximal ER degradation, 16 hrs treatment, read-out: MCF7 Dmax
[2] = maximal ER degradation, 16 hrs treatment, read-out: T47D Dmax
[3] = MCF7, read-out: MCF7 Dmax, MCF-7, maximal ER degradation, 16 hrs treatment
[4] = read-out: T47D Dmax, T47D, maximal ER degradation, 16 hrs treatment

CRBN/DDB1, sequence (Q96SW2 whole entry, species assumed): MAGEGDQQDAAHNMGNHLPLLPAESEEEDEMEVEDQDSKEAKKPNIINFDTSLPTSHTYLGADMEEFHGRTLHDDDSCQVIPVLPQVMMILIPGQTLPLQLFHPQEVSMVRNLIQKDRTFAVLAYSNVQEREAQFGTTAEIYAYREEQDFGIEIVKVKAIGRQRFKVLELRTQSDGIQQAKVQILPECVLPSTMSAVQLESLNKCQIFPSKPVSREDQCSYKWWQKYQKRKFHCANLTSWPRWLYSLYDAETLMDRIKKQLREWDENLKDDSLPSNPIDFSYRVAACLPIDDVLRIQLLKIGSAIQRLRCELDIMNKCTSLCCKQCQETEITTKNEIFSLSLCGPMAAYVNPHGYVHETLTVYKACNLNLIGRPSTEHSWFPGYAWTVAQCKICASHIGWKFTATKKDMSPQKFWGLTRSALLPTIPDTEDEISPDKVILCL
CRBN/DDB1, sequence (Q16531 whole entry partner, species assumed): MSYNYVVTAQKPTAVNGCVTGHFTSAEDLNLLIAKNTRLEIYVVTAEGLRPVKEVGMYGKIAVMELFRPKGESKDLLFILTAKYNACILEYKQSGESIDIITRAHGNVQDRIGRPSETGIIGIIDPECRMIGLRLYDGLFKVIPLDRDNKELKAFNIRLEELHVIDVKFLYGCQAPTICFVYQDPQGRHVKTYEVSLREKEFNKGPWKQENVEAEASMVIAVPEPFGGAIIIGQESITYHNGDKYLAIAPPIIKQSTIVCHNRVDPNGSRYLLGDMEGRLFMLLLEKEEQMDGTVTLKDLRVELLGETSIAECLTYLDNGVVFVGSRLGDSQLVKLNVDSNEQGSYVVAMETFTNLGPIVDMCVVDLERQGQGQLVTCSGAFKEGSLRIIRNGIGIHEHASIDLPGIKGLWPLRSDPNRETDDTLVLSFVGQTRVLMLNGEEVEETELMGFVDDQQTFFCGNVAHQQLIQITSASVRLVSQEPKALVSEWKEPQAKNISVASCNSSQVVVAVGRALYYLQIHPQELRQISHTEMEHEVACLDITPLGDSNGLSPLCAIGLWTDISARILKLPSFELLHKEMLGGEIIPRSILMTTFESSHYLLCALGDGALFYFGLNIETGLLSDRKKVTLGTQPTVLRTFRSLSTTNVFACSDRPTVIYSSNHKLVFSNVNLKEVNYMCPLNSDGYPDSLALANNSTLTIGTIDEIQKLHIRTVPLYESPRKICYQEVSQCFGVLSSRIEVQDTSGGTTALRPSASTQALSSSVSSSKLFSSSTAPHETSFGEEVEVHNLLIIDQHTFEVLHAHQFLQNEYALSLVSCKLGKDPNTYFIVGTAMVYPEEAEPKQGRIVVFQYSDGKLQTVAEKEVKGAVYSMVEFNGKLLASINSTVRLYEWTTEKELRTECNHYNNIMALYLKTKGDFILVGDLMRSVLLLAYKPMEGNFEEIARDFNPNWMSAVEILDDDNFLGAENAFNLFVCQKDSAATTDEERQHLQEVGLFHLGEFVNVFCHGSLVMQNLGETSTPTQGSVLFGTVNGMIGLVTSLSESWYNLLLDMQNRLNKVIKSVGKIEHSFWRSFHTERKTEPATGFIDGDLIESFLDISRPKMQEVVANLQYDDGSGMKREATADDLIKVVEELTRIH

MCF7 Dmax (ER in MCF-7 cells; MCF-7, maximal ER degradation, 16 hrs treatment)	T47D Dmax (ER in T47D cells; maximal ER degradation, 16 hrs treatment)	Compound	IC50 (CRBN/DDB1)	Dmax (ER in MCF-7 cells; [1])	DC50 (ER in MCF-7 cells; 16 hrs treatment)	DC50 (ER in T47D cells; 16 hrs treatment)	Dmax (ER in T47D cells; [2])	Dmax (ER in MCF-7 cells; [3])	Dmax (ER in T47D cells; [4])
		O=C1CCC(NC(=O)c2ccc3c(n2)OC[C@H]2CN(CC4CCN(c5ccc([C@H]6c7ccc(O)cc7CC[C@H]6c6ccccc6)cc5)CC4)CCN32)C(=O)N1 (stereo in doubt) [Compound A4, (4aR)-N-(2,6-dioxopiperidin-3-yl)-3-((1-(4-((1S,2R)-6-hydroxy-2-phenyl-1,2,3,4-tetrahydronaphthalen-1-yl)-phenyl)piperidin-4-yl)meth-yl)-1,2,3,4,4a,5-hexahydro-pyrazino[1,2-d]pyrido[2,3-b] [1,4]oxazine-8-carboxamide]	500 to 5000 nM	50 to 75%	1 to 10 nM	< 1 nM	50 to 75%		
		COc1cc(N2CCC(CN3CCN4c5ccc6c(c5OC[C@@H]4C3)CN([C@@H]3CCC(=O)NC3=O)C6=O)CC2)ccc1[C@@H]1c2ccc(O)cc2CC[C@@H]1c1ccccc1 (stereo in doubt) [Compound A23, (R)-3-((S)-7-((1-(4-((1S,2S)-6-hydroxy-2-phenyl-1,2,3,4-tetrahydronaphthalen-1-yl)-3-methoxyphenyl)piperidin-4-yl)methyl)-1-oxo-1,3,5,5a,6,7,8,9-oCtahydro-2H-pyrazino [1′,2′:4,5][1,4]oxazino[2,3-e]isoindol-2-yl)piperidine-2,6-dione]	< 50 nM	25 to 50%	10 to 100 nM	10 to 100 nM	50 to 75%		
B (“B”: >50 and <75%)	B (“B”: >50 and <75%)	COc1cc(N2CCC3(CC2)CC(CN2CCC(c4ccc(NC5CCC(=O)NC5=O)cc4F)CC2)C3)ccc1[C@@H]1c2ccc(O)cc2CC[C@@H]1c1ccccc1 (stereo in doubt) [Compound A106, (R)-3-((3-fluoro-4-(1-((7-(4-((1S,2S)-6-hydroxy-2-phenyl-1,2,3,4-tetrahydronaphthalen-1-yl)-3-methoxyphenyl)-7-aza-spiro[3.5]nonan-2-yl)methyl)-piperidin-4-yl)phenyl)amino)-piperidine-2,6-dione]	50 to 500 nM		< 1 nM	< 1 nM			
		COc1cc(N2CCC3(CC2)CC(CN2CCN4c5ccc(C(=O)N[C@H]6CCC(=O)NC6=O)nc5OCC4C2)C3)ccc1[C@@H]1c2ccc(O)cc2CC[C@@H]1c1ccccc1 (stereo in doubt) [Compound A108, (S)-N-((S)-2,6-dioxopiperidin-3-yl)-3-((7-(4-((1S,2S)-6-hydroxy-2-phenyl-1,2,3,4-tetra-hydronaphthalen-1-yl)-3-meth-oxyphenyl)-7-azaspiro[3.5]nonan-2-yl)methyl)-1,2,3,4,4a, 5-hexahydropyrazino[1,2-d] pyrido[2,3-b][1,4]oxazine-8-carboxamide]	500 to 5000 nM	50 to 75%	< 1 nM	< 1 nM	50 to 75%		
		COc1cc(C(=O)NC2CCC(=O)NC2=O)ncc1N1CCN(CC2CCN(c3ccc([C@@H]4c5ccc(O)cc5CC[C@@H]4c4ccccc4)cc3)CC2)CC1 (stereo partly drawn) [Compound A5, N-(2,6-dioxopiperidin-3-yl)-5-(4-((1-(4-((1R,2S)-6-hydroxy-2-phenyl-1,2,3,4-tetrahydro-naphthalen-1-yl)phenyl)piper-idin-4-yl)methyl)piperazin-1-yl)-4-methoxypicolinamide]	> 5000 nM	50 to 75%	< 1 nM	< 1 nM	25 to 50%		
		O=C1CC[C@H](N2Cc3cc4c(cc3C2=O)OC[C@H]2CN(C[C@@H]3COC5(CCN(c6ccc([C@H]7c8ccc(O)cc8CC[C@H]7c7ccccc7)cc6)CC5)C3)CCN42)C(=O)N1 [Compound A20, (S)-3-((R)-3-(((R)-8-(4-((1S, 2R)-6-hydroxy-2-phenyl-1,2,3,4-tetrahydronaphthalen-1-yl)phenyl)-1-oxa-8-azaspiro [4.5]decan-3-yl)methyl)-8-oxo-1,2,3,4,4a,5,8,10-oCtahydro-9H-pyrazino[1′,2′:4,5][1,4]oxazino[2,3-f]isoindol-9-yl)-piperidine-2,6-dione]	50 to 500 nM	50 to 75%	< 1 nM	< 1 nM	50 to 75%		
		COc1cc(N2CCC(CN3CCC4(CC3)COc3c4ccc4c3CN([C@H]3CCC(=O)NC3=O)C4=O)CC2)ccc1[C@H]1c2ccc(O)cc2CC[C@H]1c1ccccc1 [Compound A36, (R)-3-(1′-((1-(4-((1S,2S)-6-hydroxy-2-phenyl-1,2,3,4-tetrahydronaphthalen-1-yl)-3-methoxyphenyl)piperidin-4-yl)methyl)-6-oxo-6,8-dihydro-2H,7H-spiro[furo[2,3-e]iso-indole-3,4′-piperidin]-7-yl)-piperidine-2,6-dione formate]	< 50 nM		< 1 nM	< 1 nM		50 to 75%	25 to 50%
		COc1cc(N2CCC(CN3CCC4(CC3)COc3c4ccc4c3CN([C@H]3CCC(=O)NC3=O)C4=O)CC2)ccc1[C@@H]1c2ccc(O)cc2CC[C@@H]1c1ccccc1 [Compound A37, (R)-3-(1′-((1-(4-((1R,2R)-6-hydroxy-2-phenyl-1,2,3,4-tetrahydronaphthalen-1-yl)-3-methoxyphenyl)piperidin-4-yl)methyl)-6-oxo-6,8-dihydro-2H,7H-spiro[furo[2,3-e]iso-indole-3,4′-piperidin]-7-yl)-piperidine-2,6-dione]	< 50 nM		< 1 nM	< 1 nM		25 to 50%	25 to 50%
		COc1cc(N2CCC(CN3CCN4c5ccc6c(c5OC[C@H]4C3)CN([C@H]3CCC(=O)NC3=O)C6=O)CC2)c(F)cc1[C@H]1c2ccc(O)cc2CC[C@H]1c1ccccc1 [Compound A39, (S)-3-((R)-7-((1-(2-fluoro-4-((1R,2R)-6-hydroxy-2-phenyl-1,2,3,4-tetrahydronaphthalen-1-yl)-5-methoxyphenyl)piper-idin-4-yl)methyl)-1-oxo-1,3,5,5a,6,7,8,9-octahydro-2H-pyrazino[1′,2′:4,5][1,4]oxazino [2,3-e]isoindol-2-yl)piperidine-2,6-dione]	50 to 500 nM	25 to 50%	10 to 100 nM	1 to 10 nM	50 to 75%		
		O=C1CCC(Nc2ccc(C34CCN(C[C@H]5COC6(CCN(c7ccc([C@@H]8c9ccc(O)cc9CC[C@@H]8c8ccccc8)cc7)CC6)C5)CC3C4(F)F)cc2)C(=O)N1 (stereo partly drawn) [Compound A44, (3S)-3-((4-(7,7-difluoro-3-(((S)-8-(4-((1R,2S)-6-hydroxy-2-phenyl-1,2,3,4-tetrahydro-naphthalen-1-yl)phenyl)-1-oxa-8-azaspiro[4.5]decan-3-yl)-methyl)-3-azabicyclo[4.1.0]heptan-6-yl)phenyl)amino)-piperidine-2,6-dione]	> 5000 nM		> 100 nM	> 100 nM		< 25%	< 25%
		O=C1CCC(Nc2ccc(C34CCN(C[C@@H]5COC6(CCN(c7ccc([C@@H]8c9ccc(O)cc9CC[C@@H]8c8ccccc8)cc7)CC6)C5)CC3C4(F)F)cc2)C(=O)N1 (stereo partly drawn) [Compound A45, (3S)-3-((4-(7,7-difluoro-3-(((R)-8-(4-((1R,2S)-6-hydroxy-2-phenyl-1,2,3,4-tetrahydro-naphthalen-1-yl)phenyl)-1-oxa-8-azaspiro[4.5]decan-3-yl)-methyl)-3-azabicyclo[4.1.0]heptan-6-yl)phenyl)amino)-piperidine-2,6-dione]	> 5000 nM		> 100 nM	> 100 nM		< 25%	< 25%
		COc1cc(N2CCC3(CC2)CC(CN2CCN4c5ccc6c(c5OC[C@H]4C2)CN([C@H]2CCC(=O)NC2=O)C6=O)CO3)ccc1[C@@H]1c2ccc(O)cc2CC[C@@H]1c1ccccc1 (stereo partly drawn) [Compound A53, (3S)-3-((5aR)-7-((8-(4-((1S, 2S)-6-hydroxy-2-phenyl-1,2,3,4-tetrahydronaphthalen-1-yl)-3-methoxyphenyl)-1-oxa-8-azaspiro[4.5]decan-3-yl)-methyl)-1-oxo-1,3,5,5a,6,7,8,9-octahydro-2H-pyrazino[1′,2′: 4,5][1,4]oxazino[2,3-e]isoindol-2-yl)piperidine-2,6-dione]	< 50 nM	25 to 50%	10 to 100 nM	1 to 10 nM	50 to 75%		
		COc1cc(N2CCC3(CC2)CC(CN2CCC4(CC2)COc2c4ccc4c2CN([C@H]2CCC(=O)NC2=O)C4=O)CO3)ccc1[C@@H]1c2ccc(O)cc2CC[C@@H]1c1ccccc1 (stereo partly drawn) [Compound A55, (3S)-3-(1′-((8-(4-((1S,2S)-6-hydroxy-2-phenyl-1,2,3,4-tetrahydronaphthalen-1-yl)-3-methoxyphenyl)-1-oxa-8-azaspiro[4.5]decan-3-yl)meth-yl)-6-oxo-6,8-dihydro-2H,7H-spiro[furo[2,3-e]isoindole-3,4′-piperidin]-7-yl)piperidine-2,6-dione]	< 50 nM		10 to 100 nM	1 to 10 nM		25 to 50%	50 to 75%
		COc1cc(N2CCC3(CC2)CC(CN2CCN4c5cc6c(cc5OC[C@@H]4C2)C(=O)N([C@H]2CCC(=O)NC2=O)C6)CO3)ccc1[C@@H]1c2ccc(O)cc2CC[C@@H]1c1ccccc1 (stereo partly drawn) [Compound A57, (3S)-3-((4aS)-3-((8-(4-((1S,2S)-6-hydroxy-2-phenyl-1,2,3,4-tetrahydronaphthalen-1-yl)-3-methoxyphenyl)-1-oxa-8-aza-spiro[4.5]decan-3-yl)methyl)-8-oxo-1,2,3,4,4a,5,8,10-octa-hydro-9H-pyrazino[1′,2′:4,5] [1,4]oxazino[2,3-f]isoindol-9-yl)pipcridinc-2,6-dionc]	50 to 500 nM	25 to 50%	10 to 100 nM	1 to 10 nM	50 to 75%		
